Assay results reported in ChEMBL document CHEMBL1201862, “PubChem BioAssay data set” (2004).
Activity calls are given as the source filed them.

Experiments:
[1] = THP-1 cell cytotoxicity, dose response, cytotoxicity control for non-replicating M. tuberculosis project (AID 489025); type: functional
[2] = HepG2 cell cytotoxicity, dose response, cytotoxicity control for non-replicating M. tuberculosis project (AID 489018); type: functional; conditions: Mycobacterium tuberculosis
[3] = Vero E6 cell cytotoxicity, dose response, cytotoxicity control for non-replicating M. tuberculosis project, secondary assay (AID 492998); type: functional, VeroE6; conditions: Vero C1008
cells [4] = type: functional
[5] = inhibitors of firefly luciferase expression or activity, dose response, H4 neuroglioma cells, luminescence (AID 1990); type: functional, cell-based
[6] = luciferase reporter signal reduction – luminescence, H4-C neuroglioblastoma cells, dose response (AID 2458); type: functional, cell-based;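 note: H4 neuroglioblastoma cells stably carrying a luciferase reporter gene fusion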
cells [7] = type: functional, cell-based
[8] = Luminescence Cell-Based Dose Response HTS to Identify Inhibitors of 5'UTR Stem-Loop Driven Prion Protein mRNA Translation in H4 Neuroglioblastoma Cells. [Related pubchem assays: 1827 (Project Summary), 1813 (Primary HTS)]; type: functional
[9] = target: T1, Heat shock factor protein 1 (Mus musculus, UniProt P38532); experiment: inhibition of MG132-induced HSE-luciferase signal, confirmation, cell-based, NIH3T3, luminescence, dose retest (AID 2382); type: functional;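 note: NIH3T3 fibroblasts with HSF1-driven luciferase reporter stressed by proteasome inhibitor MG132; luminescence from HSF1-driven luciferase expression after 8 hours of MG132 stress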
T1 sequence (P38532 whole entry): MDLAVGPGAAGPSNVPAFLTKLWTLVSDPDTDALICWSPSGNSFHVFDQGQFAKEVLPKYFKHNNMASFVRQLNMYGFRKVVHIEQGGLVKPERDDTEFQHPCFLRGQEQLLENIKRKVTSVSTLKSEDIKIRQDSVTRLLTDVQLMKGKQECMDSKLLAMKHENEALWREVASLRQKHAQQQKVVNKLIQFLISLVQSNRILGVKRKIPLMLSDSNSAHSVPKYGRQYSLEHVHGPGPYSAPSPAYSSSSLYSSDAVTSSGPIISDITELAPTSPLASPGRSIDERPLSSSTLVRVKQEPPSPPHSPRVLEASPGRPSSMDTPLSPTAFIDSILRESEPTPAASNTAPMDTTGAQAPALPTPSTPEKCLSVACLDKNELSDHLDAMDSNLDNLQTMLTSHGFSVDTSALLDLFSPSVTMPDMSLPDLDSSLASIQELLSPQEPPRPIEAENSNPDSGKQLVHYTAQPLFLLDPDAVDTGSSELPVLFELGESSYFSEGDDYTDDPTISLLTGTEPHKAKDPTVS

[10] = inhibitors of SNCA 5'UTR-driven reporter translation, confirmation, H4 neuroglioma cells, luminescence (AID 1988); type: functional, cell-based
[11] = inhibitors of SNCA 5'UTR-driven translation, confirmation, luminescence, H4 neuroglioblastoma cells, dose confirmation (AID 2454); type: functional, cell-based;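 note: H4 neuroglioblastoma cells carrying an alpha-synuclein 5'UTR luciferase reporter; potency for inhibition of the luciferase signal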
[12] = cytotoxicity in HEK-293T cells, dose response, cytotoxicity control for TCR NF-kB inhibitor project, luminescence, T-cell screen hits (AID 489026); type: functional, cell-based;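 note: cells exposed to compound about 14 hours before the viability readout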
Trypsin = Trypsin (Sus scrofa, UniProt P00761); experiment: porcine trypsin inhibitors, dose response, selectivity assay for Rce1 protease inhibitor project, biochemical, quenched peptide fluorescence, cherry-pick (AID 488789)
[13] = target: T2, Luciferin 4-monooxygenase (Photinus pyralis, UniProt P08659); experiment: Counter Screen for Luciferase-based Assay Positives. [Related pubchem assays: 620, 618, 411 ]
HT-1080 = experiment: cytotoxicity in HT1080 fibrosarcoma cells, cell-based, fluorescence readout (AID 620); type: functional; conditions: Homo sapiens
[14] = target: T3, Rac GTPase-activating protein 1 (Homo sapiens, UniProt Q9H0H5); experiment: MgcRacGAP GTPase-activating activity inhibitors, confirmation, biochemical, ADP Hunter fluorescence, primary and confirmatory (AID 624330); type: functional
T3 sequence (Q9H0H5 whole entry): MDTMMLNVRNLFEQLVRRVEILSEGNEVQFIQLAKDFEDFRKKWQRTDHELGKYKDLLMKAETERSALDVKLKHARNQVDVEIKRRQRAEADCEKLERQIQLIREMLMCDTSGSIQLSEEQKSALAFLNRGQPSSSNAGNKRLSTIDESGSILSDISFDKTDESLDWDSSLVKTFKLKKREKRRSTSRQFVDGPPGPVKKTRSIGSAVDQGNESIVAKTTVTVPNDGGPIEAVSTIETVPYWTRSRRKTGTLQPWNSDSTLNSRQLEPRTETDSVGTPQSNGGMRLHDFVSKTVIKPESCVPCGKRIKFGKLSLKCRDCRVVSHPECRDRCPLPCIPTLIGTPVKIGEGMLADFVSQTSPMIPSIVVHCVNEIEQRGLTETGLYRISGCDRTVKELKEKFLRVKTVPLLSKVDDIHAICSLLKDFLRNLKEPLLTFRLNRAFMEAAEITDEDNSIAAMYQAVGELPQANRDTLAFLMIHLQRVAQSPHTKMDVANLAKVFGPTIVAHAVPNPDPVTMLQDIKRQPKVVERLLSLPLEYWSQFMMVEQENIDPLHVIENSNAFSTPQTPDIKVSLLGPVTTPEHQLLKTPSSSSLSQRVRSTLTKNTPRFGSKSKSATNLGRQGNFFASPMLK

[15] = target: T2, Luciferin 4-monooxygenase; experiment: firefly luciferase enzyme inhibitors, dose response, biochemical, luminescence (AID 1891)
[16] = Luminescence Cell-Based Dose Confirmation HTS to Identify Inhibitors of Platelet Dense Granule Release. [Related pubchem assays: 1663 (Primary HTS), 1678 (Summary of Project)]; type: functional
[17] = Shn3 3'UTR reporter inhibitors, dose response, cell-based, Clone20 osteoblasts, firefly luciferase, cherry-picked (AID 624132); type: functional;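 note: firefly luciferase luminescence from reporter carrying the Shn3 3'UTR in osteoblasts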
[18] = HepG2 cell cytotoxicity, dose response, cytotoxicity control for Shn3 inhibitor project, CellTiter-Glo, cherry-picked (AID 624134); type: functional, cell-based
HEK293 = experiment: inhibitors of LMP1-driven NF-kB reporter, dose response, cell-based, HEK293, luciferase, cherry-pick (AID 588343); type: functional; conditions: Homo sapiens
Aminopeptidase N = target: T4, Aminopeptidase N (Plasmodium falciparum FcB1/Columbia, UniProt O96935); experiment: P. falciparum M1AAP inhibitors, biochemical, fluorogenic H-Leu-NHMec substrate, 1536-well (AID 1445); set-up: species or system Plasmodium falciparum 3D7, 3D7
T4 sequence (O96935 whole entry): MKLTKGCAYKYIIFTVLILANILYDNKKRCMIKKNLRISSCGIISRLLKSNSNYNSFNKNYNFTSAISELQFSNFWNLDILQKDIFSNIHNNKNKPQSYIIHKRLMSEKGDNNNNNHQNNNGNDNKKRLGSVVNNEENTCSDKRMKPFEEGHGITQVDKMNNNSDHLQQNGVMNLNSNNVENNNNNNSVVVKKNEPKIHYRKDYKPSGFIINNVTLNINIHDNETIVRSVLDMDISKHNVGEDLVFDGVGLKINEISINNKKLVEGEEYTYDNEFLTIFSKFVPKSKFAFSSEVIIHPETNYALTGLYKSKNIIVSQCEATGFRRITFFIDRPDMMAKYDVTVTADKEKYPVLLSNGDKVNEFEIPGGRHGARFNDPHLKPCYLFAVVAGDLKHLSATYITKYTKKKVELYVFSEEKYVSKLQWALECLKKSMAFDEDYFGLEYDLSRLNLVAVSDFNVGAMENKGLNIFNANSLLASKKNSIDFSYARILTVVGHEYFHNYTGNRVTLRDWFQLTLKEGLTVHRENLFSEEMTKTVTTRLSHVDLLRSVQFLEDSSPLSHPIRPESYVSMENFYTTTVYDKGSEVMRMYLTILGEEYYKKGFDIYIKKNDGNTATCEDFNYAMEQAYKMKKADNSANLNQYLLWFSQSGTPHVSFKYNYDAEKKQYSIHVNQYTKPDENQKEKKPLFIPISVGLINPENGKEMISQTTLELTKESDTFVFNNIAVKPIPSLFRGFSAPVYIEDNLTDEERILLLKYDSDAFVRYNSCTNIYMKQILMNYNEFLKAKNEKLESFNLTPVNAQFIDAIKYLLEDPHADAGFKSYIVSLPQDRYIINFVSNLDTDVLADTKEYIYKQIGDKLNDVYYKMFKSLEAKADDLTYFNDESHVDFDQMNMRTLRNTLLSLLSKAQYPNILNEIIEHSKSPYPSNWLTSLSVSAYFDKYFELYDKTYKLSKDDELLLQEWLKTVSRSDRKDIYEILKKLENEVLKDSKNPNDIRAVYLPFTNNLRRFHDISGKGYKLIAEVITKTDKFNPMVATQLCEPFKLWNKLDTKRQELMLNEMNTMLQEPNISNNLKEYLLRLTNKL

[19] = target: T5, Voltage-gated N-type calcium channel alpha-1B subunit/Amyloid beta A4 precursor protein-binding family A member 1 (Homo sapiens, UniProt Q00975+Q02410); type: protein assay
[20] = target: T5, Voltage-gated N-type calcium channel alpha-1B subunit/Amyloid beta A4 precursor protein-binding family A member 1; type: protein assay; remark: listed apart in the source
[21] = target: T6, Neuropeptide Y receptor type 1 (Homo sapiens, UniProt P25929); type: functional;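 note: HEK293 cells with a CNG channel challenged with NPY then isoproterenol; potency as antagonist that reverses NPY suppression of cAMP signal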
T6 sequence (P25929 whole entry): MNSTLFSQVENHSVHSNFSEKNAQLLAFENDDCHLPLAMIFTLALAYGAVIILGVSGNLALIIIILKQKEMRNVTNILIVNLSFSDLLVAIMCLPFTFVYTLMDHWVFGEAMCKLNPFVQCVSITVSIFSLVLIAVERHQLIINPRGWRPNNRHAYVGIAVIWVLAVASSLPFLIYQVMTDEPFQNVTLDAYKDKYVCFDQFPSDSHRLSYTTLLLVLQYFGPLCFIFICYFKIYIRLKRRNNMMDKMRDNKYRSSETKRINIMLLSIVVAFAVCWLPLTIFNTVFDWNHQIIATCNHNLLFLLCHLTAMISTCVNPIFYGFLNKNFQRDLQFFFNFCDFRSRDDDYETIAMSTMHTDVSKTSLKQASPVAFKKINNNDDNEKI

[22] = target: T7, Neuropeptide Y receptor type 2 (Homo sapiens, UniProt P49146); type: functional, cell-based;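 note: HEK293 cells expressing the receptor and a CNG channel; stimulus was NPY near EC95 followed by isoproterenol to raise cAMP; antagonist potency measured as restoring cAMP signal that NPY suppresses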
T7 sequence (P49146 whole entry): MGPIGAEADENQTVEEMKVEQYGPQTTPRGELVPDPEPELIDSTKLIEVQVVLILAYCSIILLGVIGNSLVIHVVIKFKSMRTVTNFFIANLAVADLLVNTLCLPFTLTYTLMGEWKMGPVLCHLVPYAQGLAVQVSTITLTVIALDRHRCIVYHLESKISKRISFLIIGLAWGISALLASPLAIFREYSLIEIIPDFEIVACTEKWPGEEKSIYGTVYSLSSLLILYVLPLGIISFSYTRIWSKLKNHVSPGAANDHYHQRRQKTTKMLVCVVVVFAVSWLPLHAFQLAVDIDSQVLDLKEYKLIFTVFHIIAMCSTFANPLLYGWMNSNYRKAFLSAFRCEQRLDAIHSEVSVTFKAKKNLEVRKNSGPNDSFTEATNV

[23] = target: T8, Calpain-2 catalytic subunit (Sus scrofa, UniProt P43367); experiment: pig calpain II inhibitor potency, dose response, biochemical, fluorogenic peptide substrate (AID 1420); type: functional
T8 sequence (P43367 whole entry): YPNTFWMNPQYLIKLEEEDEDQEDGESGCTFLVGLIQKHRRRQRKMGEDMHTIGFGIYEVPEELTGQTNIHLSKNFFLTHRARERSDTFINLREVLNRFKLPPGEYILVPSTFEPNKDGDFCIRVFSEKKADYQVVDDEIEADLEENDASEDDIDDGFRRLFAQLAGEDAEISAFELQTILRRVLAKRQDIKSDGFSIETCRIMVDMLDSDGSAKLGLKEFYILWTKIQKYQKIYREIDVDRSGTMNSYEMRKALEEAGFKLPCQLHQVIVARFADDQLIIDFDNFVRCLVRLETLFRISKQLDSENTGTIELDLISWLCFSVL

T2 sequence (P08659 whole entry): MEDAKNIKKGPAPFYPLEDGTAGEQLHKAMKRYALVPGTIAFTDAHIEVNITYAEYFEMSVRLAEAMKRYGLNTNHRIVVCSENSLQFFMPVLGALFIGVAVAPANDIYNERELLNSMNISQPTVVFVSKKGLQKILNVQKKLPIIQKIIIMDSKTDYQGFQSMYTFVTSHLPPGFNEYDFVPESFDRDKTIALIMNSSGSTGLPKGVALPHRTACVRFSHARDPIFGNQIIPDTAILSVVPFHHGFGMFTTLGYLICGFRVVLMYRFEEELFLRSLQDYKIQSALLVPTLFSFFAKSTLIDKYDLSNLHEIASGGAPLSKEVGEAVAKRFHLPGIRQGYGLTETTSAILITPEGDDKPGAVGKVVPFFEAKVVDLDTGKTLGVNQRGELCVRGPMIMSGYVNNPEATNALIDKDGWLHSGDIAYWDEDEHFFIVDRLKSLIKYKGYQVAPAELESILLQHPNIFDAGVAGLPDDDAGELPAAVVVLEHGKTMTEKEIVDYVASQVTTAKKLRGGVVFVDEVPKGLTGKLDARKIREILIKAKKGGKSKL
T5 sequence (Q00975 whole entry): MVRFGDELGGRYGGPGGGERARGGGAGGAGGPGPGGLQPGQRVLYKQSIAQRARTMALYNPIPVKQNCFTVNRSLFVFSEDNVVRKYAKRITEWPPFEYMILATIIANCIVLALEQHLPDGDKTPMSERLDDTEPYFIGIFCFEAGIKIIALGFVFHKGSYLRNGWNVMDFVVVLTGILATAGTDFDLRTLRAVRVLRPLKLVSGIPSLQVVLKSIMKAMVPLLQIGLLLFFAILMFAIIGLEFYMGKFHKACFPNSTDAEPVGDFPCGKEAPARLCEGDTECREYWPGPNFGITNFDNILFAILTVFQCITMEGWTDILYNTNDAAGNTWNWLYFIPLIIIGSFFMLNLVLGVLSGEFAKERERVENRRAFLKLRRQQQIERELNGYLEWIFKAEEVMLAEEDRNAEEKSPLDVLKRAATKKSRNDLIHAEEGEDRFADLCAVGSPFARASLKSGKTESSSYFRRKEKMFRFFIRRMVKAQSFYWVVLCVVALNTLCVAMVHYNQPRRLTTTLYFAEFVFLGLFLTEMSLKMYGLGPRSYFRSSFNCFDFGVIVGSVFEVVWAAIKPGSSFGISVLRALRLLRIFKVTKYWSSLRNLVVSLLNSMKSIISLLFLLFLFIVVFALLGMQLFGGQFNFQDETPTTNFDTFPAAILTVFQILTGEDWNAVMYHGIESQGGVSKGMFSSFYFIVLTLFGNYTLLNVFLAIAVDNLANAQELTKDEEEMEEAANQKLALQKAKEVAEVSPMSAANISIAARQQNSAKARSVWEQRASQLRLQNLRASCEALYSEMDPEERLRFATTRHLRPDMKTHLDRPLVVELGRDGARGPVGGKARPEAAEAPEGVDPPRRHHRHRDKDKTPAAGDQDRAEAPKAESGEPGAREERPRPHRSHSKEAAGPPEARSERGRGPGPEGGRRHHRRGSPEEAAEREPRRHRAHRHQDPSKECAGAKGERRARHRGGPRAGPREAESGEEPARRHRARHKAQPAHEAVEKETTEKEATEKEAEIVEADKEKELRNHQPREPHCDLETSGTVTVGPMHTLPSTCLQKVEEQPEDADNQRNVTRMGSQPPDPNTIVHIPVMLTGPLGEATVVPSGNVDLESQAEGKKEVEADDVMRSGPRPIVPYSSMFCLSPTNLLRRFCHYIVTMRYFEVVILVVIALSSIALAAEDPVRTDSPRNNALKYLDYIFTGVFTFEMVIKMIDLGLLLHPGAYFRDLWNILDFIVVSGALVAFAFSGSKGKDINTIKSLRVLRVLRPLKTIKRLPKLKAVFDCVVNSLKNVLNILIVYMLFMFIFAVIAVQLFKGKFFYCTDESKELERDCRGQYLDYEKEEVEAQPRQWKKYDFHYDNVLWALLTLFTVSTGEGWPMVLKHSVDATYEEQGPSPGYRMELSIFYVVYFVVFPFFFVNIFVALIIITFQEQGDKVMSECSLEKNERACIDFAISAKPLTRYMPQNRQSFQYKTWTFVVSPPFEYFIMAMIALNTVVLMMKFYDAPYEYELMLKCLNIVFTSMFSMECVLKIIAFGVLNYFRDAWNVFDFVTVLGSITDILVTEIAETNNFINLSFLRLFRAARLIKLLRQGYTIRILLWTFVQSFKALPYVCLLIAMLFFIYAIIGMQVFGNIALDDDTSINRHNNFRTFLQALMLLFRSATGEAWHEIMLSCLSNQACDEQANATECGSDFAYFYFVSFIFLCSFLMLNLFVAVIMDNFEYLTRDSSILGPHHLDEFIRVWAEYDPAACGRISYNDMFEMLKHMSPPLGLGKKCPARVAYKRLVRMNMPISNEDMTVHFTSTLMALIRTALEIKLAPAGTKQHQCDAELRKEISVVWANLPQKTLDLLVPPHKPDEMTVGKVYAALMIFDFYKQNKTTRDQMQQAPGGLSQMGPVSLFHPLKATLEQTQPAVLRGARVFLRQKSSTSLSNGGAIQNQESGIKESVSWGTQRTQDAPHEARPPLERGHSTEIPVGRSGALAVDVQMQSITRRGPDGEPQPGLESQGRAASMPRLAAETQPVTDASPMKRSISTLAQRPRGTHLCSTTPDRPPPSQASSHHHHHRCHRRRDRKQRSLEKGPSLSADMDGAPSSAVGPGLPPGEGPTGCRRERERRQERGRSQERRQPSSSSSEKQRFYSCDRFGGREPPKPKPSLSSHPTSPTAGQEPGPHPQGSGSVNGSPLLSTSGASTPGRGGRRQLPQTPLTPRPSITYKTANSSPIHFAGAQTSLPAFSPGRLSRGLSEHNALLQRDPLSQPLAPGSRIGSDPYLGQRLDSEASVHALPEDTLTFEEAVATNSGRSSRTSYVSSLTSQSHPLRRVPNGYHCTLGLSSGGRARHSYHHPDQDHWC
T5 sequence (Q02410 whole entry): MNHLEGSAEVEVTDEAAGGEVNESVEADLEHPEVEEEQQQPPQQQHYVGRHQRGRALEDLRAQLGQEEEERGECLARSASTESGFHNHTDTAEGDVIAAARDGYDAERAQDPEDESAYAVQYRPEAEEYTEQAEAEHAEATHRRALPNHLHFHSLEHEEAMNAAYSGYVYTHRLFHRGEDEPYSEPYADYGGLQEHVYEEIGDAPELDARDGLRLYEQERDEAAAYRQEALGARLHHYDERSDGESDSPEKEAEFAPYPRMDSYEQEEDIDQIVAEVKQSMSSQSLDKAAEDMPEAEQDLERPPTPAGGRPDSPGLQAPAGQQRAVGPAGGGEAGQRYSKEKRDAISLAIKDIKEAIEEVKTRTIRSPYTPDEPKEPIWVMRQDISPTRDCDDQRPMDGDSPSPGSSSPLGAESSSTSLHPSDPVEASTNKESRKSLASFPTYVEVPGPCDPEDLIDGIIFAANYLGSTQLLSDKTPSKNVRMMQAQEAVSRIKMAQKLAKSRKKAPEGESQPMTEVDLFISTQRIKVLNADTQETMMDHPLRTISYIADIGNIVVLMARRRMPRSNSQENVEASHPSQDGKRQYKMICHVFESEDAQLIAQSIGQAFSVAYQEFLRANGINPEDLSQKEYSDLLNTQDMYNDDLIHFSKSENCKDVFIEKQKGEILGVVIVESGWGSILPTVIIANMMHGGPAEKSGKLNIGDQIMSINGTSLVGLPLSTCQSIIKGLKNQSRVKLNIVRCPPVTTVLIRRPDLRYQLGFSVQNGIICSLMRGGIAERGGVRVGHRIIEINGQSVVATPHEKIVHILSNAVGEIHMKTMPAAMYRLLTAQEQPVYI
Chain of Trypsin (P00761 whole entry): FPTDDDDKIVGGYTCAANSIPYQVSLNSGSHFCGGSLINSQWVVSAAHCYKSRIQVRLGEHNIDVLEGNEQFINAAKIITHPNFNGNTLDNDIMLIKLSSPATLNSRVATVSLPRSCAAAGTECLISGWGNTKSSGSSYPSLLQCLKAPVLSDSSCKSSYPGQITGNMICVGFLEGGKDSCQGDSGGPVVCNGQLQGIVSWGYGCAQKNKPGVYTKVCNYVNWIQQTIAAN

With CCOc1ccc2nc(NC(=O)c3cnc(C)cn3)sc2c1 the CC50 [1] was > 40 µM (active), the CC50 [2] was > 20 µM (active) and the CC50 [3] was 12.7 µM (active). For the same molecule, the IC50 (cells [4]) was 6.53 µM (active).
For O=[N+]([O-])c1nn(-c2ccc3c(c2)OCCO3)[n+]([O-])c1Nc1ccccc1, the EC50 [5] was < 0.1 µM (active), the EC50 [6] was 0.098 µM (active) and the EC50 (cells [7]) was 4.89 µM (active). For the same molecule, the EC50 [8] was < 0.1 µM (active), the EC50 [9] was < 0.16 µM (active) and the EC50 [10] was < 0.1 µM (active). The EC50 [11] was 0.09 µM (active) and the IC50 [12] was > 80 µM (inactive).
For N=c1n(CCN2CCCCC2)c2ccccc2n1CC(=O)c1ccc(Cl)c(Cl)c1, the CC50 [1] was 18.2 µM (active), the CC50 [2] was 11.9 µM (active) and the IC50 (cells [4]) was 23.9 µM (active).
For O=C1OCCN1C(=O)[C@H]1[C@H](c2ccc(F)cc2)C(c2ccc(F)cc2)=NN1c1ccc(Br)cc1, the AC50 (Trypsin) was 14.1 µM (active).
In the case of CNc1nnc(-c2ccc(N(C)C)cc2)s1, the EC50 [13] is reported as 2.54 µM (active), the EC50 (HT-1080) is reported as > 50 µM (not active) and the IC50 [14] is reported as 99.3 µM (active).
With O=C(Nc1nc2cc3c(cc2s1)OCCO3)C1=COCCO1 the EC50 [5] was < 0.1 µM (active), the EC50 [6] was 0.432 µM (active) and the EC50 (cells [7]) was 0.669 µM (active). For the same molecule, the EC50 [8] was < 0.1 µM (active), the EC50 [9] was 1.74 µM (active) and the EC50 [10] was < 0.1 µM (active). The EC50 [15] was 1.58 µM (active), the EC50 [16] was 5.65 µM (active) and the EC50 [11] was 0.411 µM (active). The AC50 [17] was 2.17 µM (active) and the AC50 [18] was 18.1 µM (active).
In the case of O=C(NC1=NCCS1)c1cc2ccccc2o1, the EC50 [13] is reported as 59.1 µM (active), the EC50 (HT-1080) is reported as > 50 µM (not active) and the AC50 (HEK293) is reported as 3.65 µM (active).
With CSCCC(C(=O)NC1=NCCS1)N1C(=O)c2ccccc2C1=O (stereo not drawn) the IC50 (Aminopeptidase N) was 17.8 µM (active).
With O=C(NCc1ccc2c(c1)OCO2)C1CCCN1C(=O)Nc1cccc(F)c1 (stereo not drawn) the IC50 (Aminopeptidase N) was 75 µM (active).
With O=C(O)c1ccc(Nc2nc(-c3cc4ccccc4oc3=O)cs2)cc1O the IC50 (Aminopeptidase N) was 9.7 µM (active), the IC50 [19] was 7.29 µM (active) and the IC50 [20] was > 50 µM (inactive).
In the case of c1ccc(-c2noc(-c3cccs3)n2)nc1, the EC50 [13] is reported as > 100 µM (not active) and the EC50 (HT-1080) is reported as > 50 µM (not active).
With Cc1nc(-c2ccccc2)sc1C(=O)CSc1ccc(Cl)cc1 the IC50 [21] was 5.4 µM (active), the IC50 [22] was 6.99 µM (active) and the IC50 [23] was 11.7 µM (not active).
